Measurements: ChEMBL document CHEMBL1156000, “Synthesis of 2alpha-substituted-14-epi-previtamin D3 and its genomic activity” (Bioorg Med Chem Lett, 2009)
Active and inactive are the calls of the source. The rule behind the calls is not given here.

Assays:
[1] = target: T1, Vitamin D3 receptor (Gallus gallus) (UniProt O42392); test: Displacement of [26,27-methyl-3H]1alpha,25-dihydroxyvitamin D3 from chick intestinal VDR after 1 hr by liquid scintillation counting
T1 sequence (whole entry): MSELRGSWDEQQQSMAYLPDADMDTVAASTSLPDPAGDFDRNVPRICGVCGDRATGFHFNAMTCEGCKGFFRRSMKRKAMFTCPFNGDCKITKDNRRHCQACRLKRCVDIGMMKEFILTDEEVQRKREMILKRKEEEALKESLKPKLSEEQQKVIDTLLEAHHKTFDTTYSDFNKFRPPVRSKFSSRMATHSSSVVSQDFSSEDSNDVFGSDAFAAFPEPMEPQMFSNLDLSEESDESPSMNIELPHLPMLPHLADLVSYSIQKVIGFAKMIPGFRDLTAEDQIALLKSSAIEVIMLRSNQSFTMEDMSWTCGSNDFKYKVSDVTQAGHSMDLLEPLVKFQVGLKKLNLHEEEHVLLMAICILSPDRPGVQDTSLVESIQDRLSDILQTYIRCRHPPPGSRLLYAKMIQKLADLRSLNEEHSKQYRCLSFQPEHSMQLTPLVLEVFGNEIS

[2] = target: T2, Vitamin D3 receptor (Homo sapiens) (UniProt P11473); conditions: HOS
T2 sequence (whole entry): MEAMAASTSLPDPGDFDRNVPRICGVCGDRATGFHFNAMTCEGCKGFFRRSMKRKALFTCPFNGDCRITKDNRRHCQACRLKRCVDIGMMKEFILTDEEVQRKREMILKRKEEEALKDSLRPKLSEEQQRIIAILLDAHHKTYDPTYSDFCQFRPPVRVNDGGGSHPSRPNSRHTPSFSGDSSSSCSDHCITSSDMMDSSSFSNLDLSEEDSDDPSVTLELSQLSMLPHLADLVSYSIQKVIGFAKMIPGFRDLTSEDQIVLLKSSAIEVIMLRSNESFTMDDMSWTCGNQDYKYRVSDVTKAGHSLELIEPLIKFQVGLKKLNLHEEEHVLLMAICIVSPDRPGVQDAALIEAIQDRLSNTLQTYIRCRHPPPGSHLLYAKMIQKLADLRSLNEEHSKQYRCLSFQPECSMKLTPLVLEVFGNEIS
Description: Agonist activity at human VDR expressed in human HOS cells co-transfected with RXR gene assessed as osteocalcin promoter gene transactivation after 24 hrs by luciferase assay

Row | Structure (SMILES) | relative binding affinity (RBA) [1] | ED50 [2] [nM] | relative binding affinity (RBA) ([1]; tested as the 2H-labelled form) | ED50 ([2]; tested as the 2H-labelled form) [nM]
1 | CC1=C(/C=C\C2=CCC[C@@]3(C)[C@@H]2CC[C@@H]3[C@H](C)CCCC(C)(C)O)C[C@@H](O)[C@H](OCCCO)[C@@H]1O | Active | 0.95 | – | –
2 | CC1=C(/C=C\C2=CCC[C@@]3(C)[C@@H]2CC[C@@H]3[C@H](C)CCCC(C)(C)O)C[C@@H](O)[C@H](c2ccccc2)[C@@H]1O | Active | 0.88 | – | –
3 | CC1=C(/C=C\C2=CCC[C@@]3(C)[C@@H]2CC[C@@H]3[C@H](C)CCCC(C)(C)O)C[C@@H](O)[C@H](Cc2ccccc2)[C@@H]1O | Active | 30.2 | – | –

More lines, now with the values ahead:

Row | relative binding affinity (RBA) [1] | ED50 [2] [nM] | relative binding affinity (RBA) ([1]; tested as the 2H-labelled form) | ED50 ([2]; tested as the 2H-labelled form) [nM] | Structure (SMILES)
4 | Active | 5.77 | – | – | CCCC[C@H]1[C@H](O)CC(/C=C\C2=CCC[C@@]3(C)[C@@H]2CC[C@@H]3[C@H](C)CCCC(C)(C)O)=C(C)[C@H]1O
5 | Active | 0.12 | – | – | CC1=C(/C=C\C2=CCC[C@@]3(C)[C@@H]2CC[C@@H]3[C@H](C)CCCC(C)(C)O)C[C@@H](O)[C@H](C)[C@@H]1O
6 | Active | 0.69 | – | – | CC1=C(/C=C\C2=CCC[C@@]3(C)[C@@H]2CC[C@@H]3[C@H](C)CCCC(C)(C)O)C[C@@H](O)[C@H](CCCO)[C@@H]1O
7 | – | – | Active | 0.46 | CC1=C(/C=C\C2=CCC[C@@]3(C)[C@@H]2CC[C@@H]3[C@H](C)CCCC(C)(C)O)C[C@@H](O)C[C@@H]1O
